Source: patent publication US20220341943A1, “XBP1 ISOFORM MULTIPLEX ASSAY” (Randox Laboratories Ltd, priority 2019, published 2022)

How the values were obtained:
Assay type in all cases: cell-based
XBP1s, MDA-MB-231 cells = experiment: Immunoblot of XBP1 isoforms in MDA-MB-231 cells; details: for XBP1s translation (immunoblot): Tg 48 h, Tm 1 μg/ml 16 h, BFA 0.5 μg/ml 16 h, DTT 4 mM 2 h; for XBP1s (immunoblot) under IRE1α RNase inhibition: 4μ8C 32 μM or MKC-8866 20 μM, 48 h
Protocol: (§1) Cell culture and treatments MCF10A (ATCC) cells were maintained in DMEM/F-12 (Sigma-Aldrich, St. Louis, USA) supplemented with 5% horse serum (Sigma-Aldrich, St. Louis, USA), 20 ng/mL epidermal growth factor (PeproTech, London, UK), 0.5 μg/mL Hydrocortisone (Sigma-Aldrich, St. Louis, USA), 100 ng/mL Cholera toxin (Sigma-Aldrich, St. Louis, USA), 10 μg/mL insulin (Sigma-Aldrich, St. Louis, USA), 50 U/mL^1 penicillin, and 50 μg/mL streptomycin (St. Sigma-Aldrich, St. Louis, USA). MCF7 cells (ECACC) were cultured in DMEM high glucose (Sigma-Aldrich, St. Louis, USA) supplemented with 10% FBS, 0.01 mg/mL Insulin (Sigma-Aldrich, St. Louis, USA), and 2 mM L-glutamine. MDA-MB-231 cells were cultured in DMEM high glucose (Sigma-Aldrich, St. Louis, USA) supplemented with 10% FBS, 50 U/mL^1 penicillin, 50 μg/mL streptomycin, and 2 mM L-glutamine. U937 and THP-1 (ATCC, Manassas, USA) cells were cultured in RPMI-1640 medium (Sigma-Aldrich, St. Louis, USA) supplemented with 10% foetal bovine serum (FBS) (Sigma-Aldrich, St. Louis, USA), 50 U/mL penicillin, 50 μgml^−1 streptomycin (Sigma-Aldrich, St. Louis, USA), and 2 mM L-glutamine (Sigma-Aldrich, St. Louis, USA). All cells were cultured at 37° C., 5% CO2 in a humidified incubator and adherent cells seeded at an appropriate density 24 h prior to treatment. U937 cells were seeded at 5×10^5 cells/mL and treated immediately while THP-1 cells were seeded at 1×10^6 cells/mL and treated after 2 hours.
(§2) Sample preparation Cells were washed once in ice cold phosphate buffered saline (PBS) and then lysed in either RIPA buffer (Sigma-Aldrich, St. Louis, USAUSA) with RocheSTOP protease inhibitors (Roche, Basel, Switzerland) for protein analysis or directly lysed in TriReagent (Sigma-Aldrich, St. Louis, USAUSA) as per manufactures instructions for RNA analysis.
Immunoblotting Protein lysates were mixed with 5× Laemmli Buffer (0.3125 M Tris HCl (pH 6.8), 10% SDS, 50% glycerol, 25% 2-mercaptoethanol, 0.02% bromophenol blue) in a 1:4 ratio and boiled at 95° C. for 5 min. Samples were separated on an SDS polyacrylamide gel, transferred onto nitrocellulose membrane (GE Healthcare Life Sciences, Little Chalfont, UK) and blocked with 5% milk in Wash Buffer (Randox Laboratories Ltd., Crumlin, UK). Membranes were probed with commercial antibodies to spliced and unspliced XBP1 isoforms and Actin (Sigma-Aldrich, St. Louis, USA, 1:5000). Anti-rabbit (Jackson ImmunoResearch, Cambridge, UK) and anti-mouse (Jackson ImmunoResearch, Cambridge, UK; Sigma-Aldrich, St. Louis, USA) HRP-conjugated secondary antibodies were incubated for 45-60 min and the signal was visualized using western blotting luminol reagent (Thermofisher, Waltham, USA; Perkin-Elmer, Waltham, USA).

[1] = test system: XBP1 splicing, MCF7 cells; experiment: XBP1 biochip quantification of XBP1s and XBP1u in MCF7 lysates; details: 48 h; for XBP1s quantified by XBP1 biochip: 4μ8C 32 μM (p=0.004) or MKC-8866 20 μM (p=0.008)
Protocol: Biochip-based determination of XBP1s and XBP1u. XBP1s and XBP1u levels and raw signal were quantified using the Evidence Investigator analyser (EV3602, Randox Laboratories Ltd., UK). Signals from defined discrete test regions were detected using digital imaging technology. The biochips were provided in wells in a carrier in a 3×3 format (9 reaction wells per carrier). A carrier handling tray supplied with the system accommodated 6 carriers. The total assay protocol was performed according to manufacturer's instructions. Briefly, RIPA lysed samples were diluted to 100 μL in RIPA buffer followed by dilution to 200 μL in XBP1 assay buffer and mixed well with gentle pipetting. 200 μL of XBP1 assay diluent was then applied to the surface of the biochip followed by 200 μL diluted sample or 100 μL calibrator/control per well. Following a 60-minute incubation at 37° C., 370 RPM in a thermoshaker (Randox Laboratories Ltd., Crumlin, UK) liquid contents were removed with a sharp flick and washed in a 2× quick, 4×2 min wash steps. 300 μL of HRP conjugated pan-XBP1 detector was applied to each well and another 60 min incubation at 37° C., 370 RPM in a thermoshaker was performed. Following another wash as above 250 μL of a 1:1 ratio of EV841 luminol and peroxide was applied to the surface of each biochip in a carrier and incubated away from direct light for 2 min. Carriers were then submitted to the Evidence Investigator, light emitted from each DTR detected by the CCD camera and signal quantified by the instrument software. Final values in pg/mg were obtained by dividing reported value (in pg) by total protein loaded per well, as determined by bicinchoninic acid (BCA) assay. Calibration curves, inferred values and goodness of fit were independently confirmed using R package nplr (0.1-7, Frederic Commo, https://cran.r-project.org/web/packages/nplr/index.html). […]

[2] = test system: XBP1 splicing, MDA-MB-231 cells; experiment: XBP1 biochip quantification of XBP1s and XBP1u in MDA-MB-231 lysates; details: for XBP1s quantified by XBP1 biochip: 4μ8C 32 μM (p=0.035) or MKC-8866 20 μM (p=0.033); for Paclitaxel induced increase in XBP1s under IRE1α RNase inhibition: Paclitaxel 10 nM 48 h plus inhibitor, p<0.01; for XBP1u levels: Paclitaxel, MKC-8866 and/or 4μ8C treatment; for XBP1u protein levels during IRE1α inhibition: XBP1 biochip, p=0.71
Protocol: (§3) Biochip-based determination of XBP1s and XBP1u. XBP1s and XBP1u levels and raw signal were quantified using the Evidence Investigator analyser (EV3602, Randox Laboratories Ltd., UK). Signals from defined discrete test regions were detected using digital imaging technology. The biochips were provided in wells in a carrier in a 3×3 format (9 reaction wells per carrier). A carrier handling tray supplied with the system accommodated 6 carriers. The total assay protocol was performed according to manufacturer's instructions. Briefly, RIPA lysed samples were diluted to 100 μL in RIPA buffer followed by dilution to 200 μL in XBP1 assay buffer and mixed well with gentle pipetting. 200 μL of XBP1 assay diluent was then applied to the surface of the biochip followed by 200 μL diluted sample or 100 μL calibrator/control per well. Following a 60-minute incubation at 37° C., 370 RPM in a thermoshaker (Randox Laboratories Ltd., Crumlin, UK) liquid contents were removed with a sharp flick and washed in a 2× quick, 4×2 min wash steps. 300 μL of HRP conjugated pan-XBP1 detector was applied to each well and another 60 min incubation at 37° C., 370 RPM in a thermoshaker was performed. Following another wash as above 250 μL of a 1:1 ratio of EV841 luminol and peroxide was applied to the surface of each biochip in a carrier and incubated away from direct light for 2 min. Carriers were then submitted to the Evidence Investigator, light emitted from each DTR detected by the CCD camera and signal quantified by the instrument software. Final values in pg/mg were obtained by dividing reported value (in pg) by total protein loaded per well, as determined by bicinchoninic acid (BCA) assay. Calibration curves, inferred values and goodness of fit were independently confirmed using R package nplr (0.1-7, Frederic Commo, https://cran.r-project.org/web/packages/nplr/index.html).
as §1, §2

XBP1s, MCF7 cells = experiment: Immunoblot of XBP1 isoforms in MCF7 cells; details: 4μ8C 32 μM or MKC-8866 20 μM, 48 h
Protocol: as §1, with “U937 cells were seeded at 5×10^5 cells/mL and treated immediately while THP-1 cells were seeded at 1×10^6 cells/mL and treated after 2 hours.” left out

[3] = test system: NLRP3 mediated IL-1β release, THP-1 cells; experiment: Immunoblot of IL-1β in conditioned media of THP-1 cells; details: LPS and nigericin activated
[4] = test system: XBP1 splicing, THP-1 cells; experiment: XBP1 biochip and RT-PCR assessment of THP-1 cells after NLRP3 inflammasome activation; details: for XBP1 splicing upon inflammasome activation: LPS 1 μg/ml 4 h followed by nigericin 10 μM 45 min (used together)
Protocol: as §3
Cell culture and treatments MCF10A (ATCC) cells were maintained in DMEM/F-12 (Sigma-Aldrich, St. Louis, USA) supplemented with 5% horse serum (Sigma-Aldrich, St. Louis, USA), 20 ng/mL epidermal growth factor (PeproTech, London, UK), 0.5 μg/mL Hydrocortisone (Sigma-Aldrich, St. Louis, USA), 100 ng/mL Cholera toxin (Sigma-Aldrich, St. Louis, USA), 10 μg/mL insulin (Sigma-Aldrich, St. Louis, USA), 50 U/mL^1 penicillin, and 50 μg/mL streptomycin (St. Sigma-Aldrich, St. Louis, USA). MCF7 cells (ECACC) were cultured in DMEM high glucose (Sigma-Aldrich, St. Louis, USA) supplemented with 10% FBS, 0.01 mg/mL Insulin (Sigma-Aldrich, St. Louis, USA), and 2 mM L-glutamine. MDA-MB-231 cells were cultured in DMEM high glucose (Sigma-Aldrich, St. Louis, USA) supplemented with 10% FBS, 50 U/mL^1 penicillin, 50 μg/mL streptomycin, and 2 mM L-glutamine. […]

Compound: O[C@H](CS)[C@H](O)CS (racemic) [Dithiothreitol]
- XBP1s translation (immunoblot) (XBP1s, MDA-MB-231 cells): upregulation

Compound: Cc1cc(=O)oc2c(C=O)c(O)ccc12 [4μ8C]
- XBP1s (immunoblot) under IRE1α RNase inhibition (XBP1s, MDA-MB-231 cells): reduction
- XBP1s quantified by XBP1 biochip [1]: significant reductions
- XBP1u protein expression level (average) ([1]; 4μ8C 32 μM, significant upregulation, p=0.019): 81.1 µg/mg
- relative potency of inhibition of XBP1s (XBP1 biochip) ([2]; MCF7 and MDA-MB-231, 4μ8C 32 μM versus MKC-8866 20 μM): more potent than MKC
- XBP1s quantified by XBP1 biochip ([2]; MDA-MB-231, 48 h): significant reductions
- Paclitaxel induced increase in XBP1s under IRE1α RNase inhibition ([2]; MDA-MB-231): completely ablated
- XBP1u levels ([2]; MDA-MB-231, 48 h): no significant change
- XBP1u protein levels during IRE1α inhibition ([2]; MDA-MB-231): largely unchanged
- XBP1s (immunoblot) under IRE1α RNase inhibition (XBP1s, MCF7 cells): reduction

Compound: C[C@H]1CCC/C=C/[C@@H]2C[C@H](O)C[C@H]2[C@H](O)/C=C/C(=O)O1 [Brefeldin A]
- XBP1s translation (immunoblot) (XBP1s, MDA-MB-231 cells): upregulation

Compound: COc1cc2c(C)c(CC(=O)N3CCOCC3)c(=O)oc2c(C=O)c1O [MKC-8866]
- XBP1s (immunoblot) under IRE1α RNase inhibition (XBP1s, MDA-MB-231 cells): reduction
- XBP1s quantified by XBP1 biochip [1]: significant reductions
- XBP1s quantified by XBP1 biochip ([2]; MDA-MB-231, 48 h): significant reductions
- Paclitaxel induced increase in XBP1s under IRE1α RNase inhibition ([2]; MDA-MB-231): completely ablated
- XBP1u levels ([2]; MDA-MB-231, 48 h): no significant change
- XBP1u protein levels during IRE1α inhibition ([2]; MDA-MB-231): largely unchanged
- IL-1β release [3]: ablates
- XBP1s (immunoblot) under IRE1α RNase inhibition (XBP1s, MCF7 cells): reduction
- XBP1s expression upon MKC-8866 mediated inhibition (XBP1 biochip) ([4]; LPS and nigericin activated, p=0.048): significant changes
- XBP1u levels (XBP1 biochip) ([4]; mean=46.2 μg/mg over treatments, one-way ANOVA p=0.408): largely unchanged

Compound: CC(=O)O[C@H]1C(=O)[C@@]2(C)[C@H]([C@H](OC(=O)c3ccccc3)[C@]3(O)C[C@H](OC(=O)[C@H](O)[C@@H](NC(=O)c4ccccc4)c4ccccc4)C(C)=C1C3(C)C)[C@]1(OC(C)=O)CO[C@@H]1C[C@@H]2O [Paclitaxel]
- XBP1s expression ([2]; MDA-MB-231, Paclitaxel 10 nM, 48 h, from 66.9±16.2 without Paclitaxel, p=0.036): 125.0 ± 14.1 µg/mg
- XBP1u levels ([2]; MDA-MB-231, 48 h): no significant change

Compound: C/C=C(/C)C(=O)O[C@H]1C(C)=C2[C@H]([C@@H]1OC(=O)CCCCCCC)[C@@](C)(OC(C)=O)C[C@H](OC(=O)CCC)[C@@]1(O)[C@H]2OC(=O)[C@@]1(C)O [Thapsigargin]
- XBP1s translation (immunoblot) (XBP1s, MDA-MB-231 cells): upregulation

Compound: CO[C@@H]1C[C@@H](C[C@H]2CC[C@H](C)[C@H]([C@@H](C)C(=O)O)O2)O[C@]2(O[C@](C)([C@H]3CC[C@@](C)([C@@H]4O[C@@H]([C@H]5O[C@@](O)(CO)[C@H](C)C[C@@H]5C)C[C@@H]4C)O3)C[C@H]2C)[C@@H]1C [nigericin, Nigericin]
- XBP1 splicing upon inflammasome activation [4]: increase

Compound: Lipopolysaccharide [LPS]
- XBP1 splicing upon inflammasome activation [4]: increase

Compound: Tunicamycin
- XBP1s translation (immunoblot) (XBP1s, MDA-MB-231 cells): upregulation
